Target: T1, RORc ligand binding domain (Homo sapiens, UniProt P51449)
T1 construct: host or cells: E. coli
T1 sequence (P51449 269-508 limits assumed): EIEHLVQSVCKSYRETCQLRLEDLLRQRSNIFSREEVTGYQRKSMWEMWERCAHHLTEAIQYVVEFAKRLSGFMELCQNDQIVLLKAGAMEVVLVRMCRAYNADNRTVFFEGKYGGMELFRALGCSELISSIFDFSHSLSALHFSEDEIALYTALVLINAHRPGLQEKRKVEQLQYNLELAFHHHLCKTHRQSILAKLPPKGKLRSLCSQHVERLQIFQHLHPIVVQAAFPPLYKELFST
Test: In vitro RORc ligand binding assay (25-[3H]hydroxycholesterol displacement, filter binding)
Settings: 6 nM 25-[3H]hydroxycholesterol, 0.6 ug/mL RORc receptor, 3 h at 25° C.
Procedure, shortened: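 Filter-binding displacement of 6 nM 25-[3H]hydroxycholesterol from RORc receptor (0.6 ug/mL) in 50 mM HEPES pH 7.4, 150 mM NaCl, 5 mM MgCl2, 1 mM DTT, 0.01% BSA, 5% DMSO; 3 h at 25° C. NSB defined with 1 uM 25-hydroxycholesterol; scintillation counting gave Kiapp, IC50 or % inhibition (screening at 1 and 10 uM).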

Structure (SMILES)	IC50 [nM]
CC1(C)[C@@H]2CC[C@@]1(C(=O)N1CCC(C#N)C1)c1nnc(-c3c(F)cccc3F)cc12 (stereo partly drawn) [Example 245, 1-((5S,8S)-3-(2,6-difluorophenyl)-9,9-dimethyl-5,6,7,8-tetrahydro-5,8-methanocinnoline-8-carbonyl)pyrrolidine-3-carbonitrile]	126
COC[C@@H]1CCCN1C(=O)[C@]12CC[C@H](c3cc(-c4c(F)cccc4F)nnc31)C2(C)C [Example 246, ((5S,8S)-3-(2,6-difluorophenyl)-9,9-dimethyl-5,6,7,8-tetrahydro-5,8-methanocinnolin-8-yl)((S)-2-(methoxymethyl)pyrrolidin-1-yl)methanone]	2840
CC1(C)[C@@H]2CC[C@@]1(C(=O)N1C3CCC1CC3)c1nnc(-c3c(F)cccc3F)cc12 [Example 247, 7-azabicyclo[2.2.1]heptan-7-yl((5S,8S)-3-(2,6-difluorophenyl)-9,9-dimethyl-5,6,7,8-tetrahydro-5,8-methanocinnolin-8-yl)methanone]	1110
CC1(C)[C@@H]2CC[C@@]1(C(=O)N1CCC(C(N)=O)C1)c1nnc(-c3c(F)cccc3F)cc12 (stereo partly drawn) [Example 249, 1-((5S,8S)-3-(2,6-difluorophenyl)-9,9-dimethyl-5,6,7,8-tetrahydro-5,8-methanocinnoline-8-carbonyl)pyrrolidine-3-carboxamide]	3120
CC1(C)[C@@H]2CC[C@@]1(C(=O)N1CCC[C@H]1C(N)=O)c1nnc(-c3c(F)cccc3F)cc12 [Example 250, (S)-1-((5S,8S)-3-(2,6-difluorophenyl)-9,9-dimethyl-5,6,7,8-tetrahydro-5,8-methanocinnoline-8-carbonyl)pyrrolidine-2-carboxamide]	3090
Cn1ncnc1[C@@]12CC[C@@H](c3cc(-c4c(F)cccc4F)nnc31)C2(C)C [Example 251, (5R,8R)-3-(2,6-difluorophenyl)-9,9-dimethyl-8-(1-methyl-1H-1,2,4-triazol-5-yl)-5,6,7,8-tetrahydro-5,8-methanocinnoline]	610
CC1(C)[C@@H]2CC[C@@]1(N1CCNC1=O)c1nnc(-c3c(F)cccc3F)cc12 [Example 252, 1-((5S,8S)-3-(2,6-difluorophenyl)-9,9-dimethyl-5,6,7,8-tetrahydro-5,8-methanocinnolin-8-yl)imidazolidin-2-one]	1580
CC1(C)[C@@H]2CC[C@@]1(N1CCCC1=O)c1nnc(-c3c(F)cccc3F)cc12 [Example 253, 1-((5S,8S)-3-(2,6-difluorophenyl)-9,9-dimethyl-5,6,7,8-tetrahydro-5,8-methanocinnolin-8-yl)pyrrolidin-2-one]	961
CC1(C)[C@@H]2CC[C@@]1(N1CCOC1=O)c1nnc(-c3c(F)cccc3F)cc12 [Example 254, 3-((5S,8S)-3-(2,6-difluorophenyl)-9,9-dimethyl-5,6,7,8-tetrahydro-5,8-methanocinnolin-8-yl)oxazolidin-2-one]	866
CC1(C)[C@H]2CC[C@]1(c1nnc(N)o1)c1nnc(-c3c(F)cccc3F)cc12 [Example 255, 5-((5R,8R)-3-(2,6-difluorophenyl)-9,9-dimethyl-5,6,7,8-tetrahydro-5,8-methanocinnolin-8-yl)-1,3,4-oxadiazol-2-amine]	822
CC(C)(C)OC(=O)N[C@]12CC[C@H](c3cc(-c4c(F)cccc4F)nnc31)C2(C)C [Example 256, tert-butyl ((5S,8S)-3-(2,6-difluorophenyl)-9,9-dimethyl-5,6,7,8-tetrahydro-5,8-methanocinnolin-8-yl)carbamate]	2330
CC1(C)[C@H]2CC[C@]1(N1CCOC1=O)c1nnc(-c3c(F)cccc3F)cc12 [Example 257, 3-((5R,8R)-3-(2,6-difluorophenyl)-9,9-dimethyl-5,6,7,8-tetrahydro-5,8-methanocinnolin-8-yl)oxazolidin-2-one]	438
CN(CCC#N)C(=O)[C@]12CC[C@H](c3cc(-c4c(F)cccc4F)nnc31)C2(C)C [Example 258, (5S,8S)-N-(2-cyanoethyl)-3-(2,6-difluorophenyl)-N,9,9-trimethyl-5,6,7,8-tetrahydro-5,8-methanocinnoline-8-carboxamide]	1130

Reference: patent US9981916B2 (Genentech, Inc., priority 2013, dated 2018)
